PMC10674446, “Synthesis and Structural Characterization of Novel Dimers of Dipyridothiazine as Promising Antiproliferative Agents” (Molecules, 2023)
Like-named read-outs stand apart in the source and are kept apart here.

Assays:
MCF7 breast cancer = assay: MTT cell viability assay, MCF7; type: cell-based, human; details: for Selectivity Index (SI), MCF-7: SI = IC50 L6 / IC50 MCF-7; for IC50: mean ± SD, n = 3, read-out: Anticancer Activity IC50, MCF-7
Method: (§1) MCF7, SW480 and normal L6 muscle cells were bought from the ATCC company, USA [34]. MCF7 and SW480 adenocarcinoma cell lines were cultured, respectively, using Dulbecco’s Modified Eagle Medium (DMEM with 4.5 g/L glucose; HIMEDIA, Mumbai, India) supplemented with 100 U/mL penicillin, 100 µg/mL of streptomycin and 10% fetal bovine serum (FBS; Cat No. FBSEU500; Tico Europe, Amstelveen, The Netherlands) under standard conditions until the desired confluency was reached. Once the desired cell confluency of 70–80% was observed, the cells were sub-cultured through trypsinization, and the cell count was calculated prior to seeding in the 96-well microplate. Similarly, L6 rat myoblasts were cultured accordingly as normal cell lines to compare against MCF7 and SW480 cell lines during the MTT cell viability assay.
(§2) Cells were seeded in a 96-well microplate at a density of 1 × 10^4 cells per well and were allowed to adhere to the wells overnight. […] The cells were exposed to the tested substances at concentrations ranging from 50, 25, 10, 5 and 1 μM. The treatment was conducted over three periods of 24 h, 48 h and 72 h, respectively. […] Lastly, the spent MTT medium was removed and DMSO was added to the wells, where the purple formazan crystals were solubilized, and the intensity of the purple hue was spectrophotometrically measured at 570 nm.
(§3) All values were represented as means ± standard deviations (n = 3). […] The IC50 values were further subjected to one-way ANOVA analysis along with the post hoc test to determine the statistical significance between the treatment groups and the negative control (untreated cells).

SW480 colon cancer = assay: MTT cell viability assay, SW480; type: cell-based, human; details: for Selectivity Index (SI), SW480: SI = IC50 L6 / IC50 SW480; for IC50: mean ± SD, n = 3, read-out: Anticancer Activity IC50, SW480
Method: as §1, §2, §3

normal L6 rat myoblasts = assay: MTT cell viability assay, normal L6 cells; type: cell-based; details: mean ± SD, n = 3, read-out: Anticancer Activity IC50, L6
Method: as §1
(§4) Cells were seeded in a 96-well microplate at a density of 1 × 10^4 cells per well and were allowed to adhere to the wells overnight. Subsequently, the cells were treated with varying concentrations of 12 compounds (1a,b,c–4a,b,c) along with doxorubicin as the positive control. The cells were exposed to the tested substances at concentrations ranging from 50, 25, 10, 5 and 1 μM. The treatment was conducted over three periods of 24 h, 48 h and 72 h, respectively. After the treatment period, thiazolyl blue tetrazolium bromide (MTT) solution was added to each well at a concentration of 0.5 mg/mL and incubated for 3 h in a 37 °C incubator supplemented with 5% CO2. Lastly, the spent MTT medium was removed and DMSO was added to the wells, where the purple formazan crystals were solubilized, and the intensity of the purple hue was spectrophotometrically measured at 570 nm.
(§5) All values were represented as means ± standard deviations (n = 3). The data were statistically analyzed using GraphPad Prism 10.1.0, where the IC50 values of each compound treated on different cell lines at different time points were obtained by extrapolating the logarithmic dose–response curve. The IC50 values were further subjected to one-way ANOVA analysis along with the post hoc test to determine the statistical significance between the treatment groups and the negative control (untreated cells).

[1] = system: MCF7 and SW480 cancer cells; assay: MTT cell viability assay, both cancer cell lines; type: cell-based, human; details: for cytotoxicity towards MCF7 compared with SW480 (in words): breast cancer cell line MCF7 versus colon cancer cell line SW480; for toxicity towards both MCF7 and SW480 cancer cells (in words): 24, 48 and 72 h of incubation; for IC50: Homo sapiens, MCF7 and SW480, span over 24, 48 and 72 h, read-out: IC50 range towards both cancer cell lines
Method: as §1, §4, §5

[2] = Homo sapiens, MCF7, 24 h treatment period
[3] = Homo sapiens, MCF7, 48 h treatment period
[4] = Homo sapiens, MCF7, 72 h treatment period, NA = IC50 beyond the tested concentration range (1-50 µM)
[5] = Homo sapiens, SW480, 24 h treatment period
[6] = Homo sapiens, SW480, 48 h treatment period
[7] = Homo sapiens, SW480, 72 h treatment period
[8] = Rattus norvegicus, Myoblast, 24 h treatment period
[9] = Rattus norvegicus, Myoblast, 48 h treatment period
[10] = Rattus norvegicus, Myoblast, 72 h treatment period
[11] = 72 h treatment period, NA = IC50 beyond the tested concentration range (1-50 µM)

Row | Compound | Selectivity Index (SI), MCF-7 (MCF7 breast cancer; 24 h) | Selectivity Index (SI), MCF-7 (MCF7 breast cancer; 48 h) | Selectivity Index (SI), MCF-7 (MCF7 breast cancer; 72 h) | IC50 (MCF7 breast cancer; [2]) [µM] | IC50 (MCF7 breast cancer; [3]) [µM] | IC50 (MCF7 breast cancer; [4]) [µM] | Selectivity Index (SI), SW480 (SW480 colon cancer; 24 h) | Selectivity Index (SI), SW480 (SW480 colon cancer; 48 h) | Selectivity Index (SI), SW480 (SW480 colon cancer; 72 h) | IC50 (SW480 colon cancer; [5]) [µM] | IC50 (SW480 colon cancer; [6]) [µM] | IC50 (SW480 colon cancer; [7]) [µM] | IC50 (normal L6 rat myoblasts; [8]) [µM] | IC50 (normal L6 rat myoblasts; [9]) [µM] | IC50 (normal L6 rat myoblasts; [10]) [µM] | melting point [°C] | also measured
1 | c1cnc2c(c1)Sc1ncccc1N2Cc1ccc(CN2c3cccnc3Sc3cccnc32)cc1 [1b, 1,4-bis((dipyrido[2,3-b:2′,3′-e][1,4]thiazin-10-yl)methyl)benzene] | 1.38 | 0.12 | 1.22 | 11.6 ± 0.15 | 15.9 ± 0.83 | 9.6 ± 0.46 | 0.55 | 0.1 | 0.59 | 28.7 ± 1.28 | 20.7 ± 1.22 | 19.8 ± 1.21 | 16 ± 0.36 | 1.92 ± 1.39 | 11.7 ± 0.59 |  | cytotoxicity towards MCF7 compared with SW480 (in words) [1]: higher cytotoxicity
2 | c1ccc(CN2c3ccncc3Sc3ccncc32)c(CN2c3ccncc3Sc3ccncc32)c1 [3a, 1,2-bis((dipyrido[3,4-b:3′,4′-e][1,4]thiazin-10-yl)methyl)benzene] | 6.46 | 6.85 | 3.51 | 4.77 ± 0.84 | 3.17 ± 0.13 | 6.1 ± 1.33 | 5.02 | 5.22 | 4.69 | 6.12 ± 0.21 | 4.16 ± 0.08 | 4.56 ± 1.18 | 30.8 ± 0.47 | 21.7 ± 0.48 | 21.41 ± 0.17 | 280 to 282 | toxicity towards both MCF7 and SW480 cancer cells (in words) [1]: significantly toxic; IC50 [1]: 3.17 to 6.12 µM
3 | 1,4-bis((dipyrido[2,3-b:2′,3′-e][1,4]thiazin-10-yl)methyl)benzene [3b] | 1.09 | 0.81 | 1.17 |  |  |  |  | 1.07 | 1.15 |  |  |  |  |  |  |  | IC50 (MCF7 breast cancer; 24 h treatment period): 19 ± 1.23 µM; IC50 (MCF7 breast cancer; 48 h treatment period): 28 ± 0.65 µM; IC50 (MCF7 breast cancer; [11]): 18.89 ± 0.15 µM; IC50 (SW480 colon cancer; 24 h treatment period): 24.5 ± 0.26 µM; IC50 (SW480 colon cancer; 48 h treatment period): 21.19 ± 0.14 µM; IC50 (SW480 colon cancer; 72 h treatment period): 19.3 ± 0.12 µM; IC50 (normal L6 rat myoblasts; 24 h treatment period): 20.8 ± 0.28 µM; IC50 (normal L6 rat myoblasts; 48 h treatment period): 22.7 ± 0.29 µM; IC50 (normal L6 rat myoblasts; 72 h treatment period): 22.15 ± 0.22 µM
4 | c1cc(CN2c3ccncc3Sc3ccncc32)nc(CN2c3ccncc3Sc3ccncc32)c1 [3c, 2,6-bis((dipyrido[3,4-b:3′,4′-e][1,4]thiazin-10-yl)methyl)pyridine] | 3.25 | 2.42 | 1.41 | 15 ± 0.73 | 11.7 ± 0.38 | 25.2 ± 1.74 | 2.19 | 0.94 | 1.37 | 22.3 ± 0.93 | 28.8 ± 1.55 | 25.9 ± 0.84 | 48.98 ± 0.33 | 28.4 ± 0.37 | 35.53 ± 0.04 | 245 to 247 | 
5 | c1ccc(CN2c3cnccc3Sc3cccnc32)c(CN2c3cnccc3Sc3cccnc32)c1 [2a, 1,2-bis((dipyrido[3,2-b:3′,4′-e][1,4]thiazin-10-yl)methyl)benzene] | 3.5 | 1.83 | 1.59 | 6.27 ± 0.95 | 9.65 ± 0.63 | 8.16 ± 0.97 | 2.32 | 2.03 | 1.75 | 9.68 ± 0.17 | 8.74 ± 0.03 | 7.433 ± 0.02 | 22.1 ± 1.42 | 17.7 ± 0.27 | 13 ± 1.32 | 260 to 261 | toxicity towards both MCF7 and SW480 cancer cells (in words) [1]: significantly toxic; IC50 [1]: 6.27 to 9.68 µM
6 | c1ccc(CN2c3cccnc3Sc3cccnc32)c(CN2c3cccnc3Sc3cccnc32)c1 [1a, 1,2-bis((dipyrido[2,3-b:2′,3′-e][1,4]thiazin-10-yl)methyl)benzene] | 2.62 | 2.69 | 2.15 | 7.85 ± 1.67 | 7.12 ± 0.42 | 7.49 ± 1.13 | 0.94 | 0.93 | 0.92 | 21.8 ± 0.36 | 20.5 ± 0.79 | 17.5 ± 0.5 | 20.6 ± 0.29 | 19.1 ± 1.08 | 16.1 ± 0.42 | 265 to 267 | cytotoxicity towards MCF7 compared with SW480 (in words) [1]: higher cytotoxicity
7 | COc1cccc2c1C(=O)c1c(O)c3c(c(O)c1C2=O)C[C@@](O)(C(=O)CO)C[C@@H]3O[C@H]1C[C@H](N)[C@H](O)[C@H](C)O1 [Doxorubicin, reference compound] | 0.41 | 0.25 |  | 28.4 ± 0.36 | 24.6 ± 2.37 |  | 0.85 | 0.63 | 0.28 | 13.46 ± 0.11 | 10.44 ± 0.1 | 10.77 ± 0.07 | 11.5 ± 0.68 | 6.62 ± 0.18 | 3.07 ± 0.38 |  | 
8 | c1ccc(CN2c3ccncc3Sc3ncccc32)c(CN2c3ccncc3Sc3ncccc32)c1 [4a, 1,2-bis((dipyrido[2,3-b:4′,3′-e][1,4]thiazin-5-yl)methyl)benzene] | 1.10 | 0.68 | 0.75 | 32.7 ± 2.31 | 33.8 ± 1.46 | 19.9 ± 2.36 | 1.56 | 0.95 | 0.61 | 23 ± 1.22 | 24.1 ± 0.66 | 24.4 ± 0.83 | 35.9 ± 0.57 | 22.9 ± 1.39 | 14.9 ± 1.15 | 302 to 303 | 
9 | 1,4-bis((dipyrido[2,3-b:2′,3′-e][1,4]thiazin-10-yl)methyl)benzene [4b] | 1.23 | 1.27 | 0.45 |  |  |  | 1.21 | 1.16 | 0.54 |  |  |  |  |  |  |  | IC50 (MCF7 breast cancer; 24 h treatment period): 29.7 ± 1.33 µM; IC50 (MCF7 breast cancer; 48 h treatment period): 24.24 ± 0.17 µM; IC50 (MCF7 breast cancer; [11]): 25.6 ± 0.35 µM; IC50 (SW480 colon cancer; 24 h treatment period): 29.1 ± 0.37 µM; IC50 (SW480 colon cancer; 48 h treatment period): 26.4 ± 0.74 µM; IC50 (SW480 colon cancer; 72 h treatment period): 21.41 ± 0.21 µM; IC50 (normal L6 rat myoblasts; 24 h treatment period): 36.7 ± 1.03 µM; IC50 (normal L6 rat myoblasts; 48 h treatment period): 30.8 ± 0.93 µM; IC50 (normal L6 rat myoblasts; 72 h treatment period): 11.6 ± 0.47 µM
